Source: patent US7781459B2, “Carboxyalkoxy-substituted acyl-carboxyphenylurea derivatives and their use as medicaments” (Sanofi-Aventis Deutschland GmbH, priority 2002, dated 2010)
Read-outs that look alike come from different tables or passages of the source.

Test system: glycogenolysis in primary cultures of rat hepatocytes
Assay: Inhibitory potency on glycogenolysis in primary cultures of rat hepatocytes (glucagon-induced glucose production rate)
Type: cell-based
Settings: Hepatocyte
Procedure: Analysis of Test Substances for their Inhibitory Potency on Glycogenolysis in Primary Cultures of Rat Hepatocytes
Hepatocytes were isolated from the livers of fed rats (Sprague-Dawley or Wistar, bodyweight 220-240 g) by means of a standard 2-stage perfusion first with calcium-free buffer solution followed by perfusion with collagenase-containing solution to break up the tissue assembly (Seglen et al, 1979). The cells were incubated in an incubator with 90% humidity at 37° C. and an atmosphere with 5% CO2 in air. The cultivation normally took place with Williams' medium E supplemented with 20 mM glucose, 0.1 mM fructose, 1 μM dexamethasone and 100 nM insulin. Glycogenolysis was induced by changing the culture medium to prewarmed carbogen-gassed Krebs-Henseleit bicarbonate Hepes (20 mM) buffer, pH 7.4, supplemented with 100 nM glucagon (time 0 min). The test substances were normally added at time 0 min as 100× stock solution in DMSO. The final DMSO concentration was not higher than 1% (v/v). The amount of glucose in the culture supernatant was determined after addition of glucagon in the presence and absence of test substance by removing small aliquots of the cell culture supernatant at times 0, 30, 60 and 90 min. The glucose concentration (mM) was determined by enzymatic methods in a biochemical analysis laboratory of Aventis Pharma Deutschland. The glucose production rate was found by linear regression of the glucose concentration at times 30, 60 and 90 min using the following formula:
Glucose production rate (mM/h)=mM glucose (90 min)−mM glucose (30 min).
The percent inhibition was calculated using the following formula: […]
IC50 values (IC50: the concentration (μM) of test substance which brings about a reduction of 50% in the glucose production rate) was estimated by standard curve fitting methods using the percent inhibitions obtained at relevant concentrations of test substance.

[1] = glycogenolysis induced with 100 nM glucagon, 50% reduction in glucose production rate, read-out: IC50 on hep.
[2] = comparison examples from WO 01/94300, glucagon-induced glycogenolysis, read-out: IC50 nm hep.

Row | Structure (SMILES) | IC50 [1] [nM] | IC50 [2] [nM]
1 | COC(=O)CCCOc1cc(C(=O)O)ccc1NC(=O)NC(=O)c1cc(F)c(F)cc1Cl [Example 10, 4-[3-(2-Chloro-4,5-difluorobenzoyl)ureido]-3-(3-methoxycarbonylpropoxy)benzoic acid] | 106 | –
2 | CC(=O)CCCCCOc1ccc(NC(=O)NC(=O)c2ccc(Cl)cc2Cl)c(F)c1 [Example No. 116 from WO 01/94300, reference compound] | – | 13500
3 | CC(=O)CCCCCOc1c(Cl)cc(NC(=O)NC(=O)c2ccc(F)cc2Cl)cc1Cl [Example No. 105 from WO 01/94300, reference compound] | – | 17500
4 | O=C(O)COc1ccccc1NC(=O)NC(=O)c1ccc(F)cc1Cl [Example 1, 2-[3-(2-Chloro-4-fluorobenzoyl)ureido]phenoxyacetic acid] | 1160 | –
5 | O=C(O)COc1cc(C(=O)O)ccc1NC(=O)NC(=O)c1ccc(F)cc1Cl [Example 2, 3-Carboxymethoxy-4-[3-(2-chloro-4-fluorobenzoyl)ureido]benzoic acid] | 1460 | –
